Values joined by “and” are separate entries in the source; they are usually repeats but may differ in a detail not shown here. Identical values can stand only once. Like-named read-outs stand apart in the source and are kept apart here. Marks after values point to notes of the source that are not given here.

Series [1] is described as follows: In vitro stability of mexiletine prodrugs under conditions prevailing in the gut. It counts as physicochemical. As to conditions: 0.1M phosphate buffer pH 7.4, 2 h.
The nature of series [2]: Systemic availability of mexiletine in the dog from mexiletine prodrugs (oral gavage). It counts as in vivo. As to conditions: 1 mg/kg mexiletine free base. On the procedure: Test substances (i.e., mexiletine, and various mexiletine amino acid prodrugs) were administered by oral gavage to groups of two or some cases five dogs. The characteristics of the test animals are set out in Table 6.
Blood samples were taken at various times after administration and submitted to analysis for parent drug using a validated LC-MS-MS assay. Pharmacokinetic parameters derived from the plasma bioanalytical data were determined using Win Nonlin.

The subject of series [3] is rabbit stomach smooth muscle. As to the kind of experiment: Electrical field stimulated contractions of isolated rabbit stomach smooth muscle. As to conditions: read-out: ED50 for attenuation of EFS induced contractions. It counts as cell-based.
The test system of series [4] is ferret. As to the kind of experiment: Emetic effects following oral administration to the ferret. Conditions: oral 20 mg/kg mexiletine HCl or molar equivalent, individual animals. It counts as in vivo. From the text: Male ferrets (n=7) were allowed free access to pelleted diet until late afternoon on the day prior to the day of each test. The food was then removed and the ferrets were starved overnight. Food was not returned until after completion of the emetic observation.

Series [5] can be described thus: Systemic availability of mexiletine in the cynomolgus monkey from mexiletine prodrugs (oral gavage). It counts as in vivo. Conditions: 1 mg/kg mexiletine free base, plasma mexiletine. As for the experimental part:
Test substances (i.e., mexiletine, and various mexiletine amino acid prodrugs) were administered by oral gavage to groups of two and, in one case, five male cynomolgus monkeys. Blood samples were taken at various times after administration and submitted to analysis for the parent drug using a validated LC-MS-MS assay. Pharmacokinetic parameters derived from the plasma bioanalytical data were determined using Win Nonlin.

A short description of series [6]: In vitro stability of mexiletine prodrugs under conditions prevailing in the gut. It counts as physicochemical. As to conditions: HPLC; for Simulated gastric fluid (pH 1.1): % remaining after 2 h/37° C.: simulated gastric fluid pH 1.1, 2 h; for Simulated intestinal fluid (pH 6.8): % remaining after 2 h/37° C.: simulated intestinal fluid pH 6.8, 2 h. On the procedure:
To investigate if the prodrugs of the present invention are stable in conditions mimicking the gut, various mexiletine amino acid prodrugs were incubated at 37° C. in simulated gastric and simulated intestinal juice (USP defined composition) for 2 hours. The remaining concentrations of the prodrug were then assayed by HPLC.

The test system of series [7] is sodium channel. Conditions: relative to mexiletine; cited from earlier work.
The subject of series [8] is patients with myotonic disorders. Conditions: 1200 mg daily tocamide or 600 mg daily mexiletine, three divided doses; cited from earlier work.
The test system of series [9] is patients with myotonic dystrophy (type 1). As to conditions: 150 tid or 200 mg tid, 7 weeks; cited from earlier work.
The test system of series [10] is 9-AC induced myotonia in the rat. As to the kind of experiment: Anti-myotonic effects in 9-anthracene carboxylic acid (9-AC) treated rats (righting time). It counts as in vivo. As to conditions: for Mean ± SEM righting response time: 9-AC 30 mg/kg ip. On the procedure: The use of ip injection of 9-anthracene carboxylic acid is known to induce a myotonic state in rats which can then be used to assess the activity of potential anti-myotonic compounds (Villegas-NavarroA et al (1992) Exp. Toxicol. Pathol. 44 34-39).
Groups of four rats were predosed with 30 mg/kg 9-AC (time 0) and ten minutes later their righting time was assessed repeatedly seven times in rapid succession. They were then dosed po with mexiletine or mexiletine glutamic acid amide at 1, 5, 10, 20 or 40 mg/kg and the righting time reassessed at ˜30, 60, 120 and 180 minutes after 9-AC injection. At each dose level, a group of four control animals, given vehicle alone, was used

Series [11] has as its system ADR mouse. As to the kind of experiment: Anti-myotonic effects in the ADR mouse (righting response). It counts as in vivo. Conditions: oral 5 mg/kg. As for the experimental part:
The effects of oral administration of either mexiletine glutamic acid amide at 5, 10 or 20 mg/kg or mexiletine 5 mg/kg on the righting response of a group of three adr/adr mice were examined on three separate days. Each assessment involved placing the individual mice on their back no fewer than seven successive occasions in rapid succession and determining the time to successful righting at various time pre and post dosing (−10, +15, +30, +60, +120 & +180 mins).

For series [12], the system named is patients. Conditions: cited from earlier work.
[13] abbreviates: listed as Mexiletine lysine amide.

On to `Cc1cccc(C)c1OCC(C)NC(=O)CN.O=C(O)C(F)(F)F` (racemic) [Mexiletine glycine amide, Glycine-(rac)-mexiletine Trifluoroacetate], for which the “pH 7.4, 37° C. 0.1M phosphate buffer: % remaining after 2 h/37° C.” value in series [1] was determined as 99.9%. The “T50% Cmax” value in [2] (plasma mexiletine) is listed as 5.5** h. Also, the EC50 in series [3] (Oryctolagus cuniculus, rabbit stomach antrum strips, EFS 14 Hz) turned out to be 9.16 µM. In addition, in series [4] (2 h observation), the “Total number of individual incidences of retching” value is 20 (2×) and 2 (2×) and 12 and 0 and 10; the “Total number of individual incidences of vomiting” value was 5 and 1 (2×) and 2 and 0 (2×) and 3. For the same molecule, in series [4], the “Time to onset of retching” value was 15 min (2×) and 13 min (2×) and 11 min and >120 min and 10 min; the “Time to onset of vomiting” value is 17 min and 13 min (2×) and 11 min and >120 min (2×) and 15 min. In addition, the “T50% Cmax” value in series [5] is 3.71** h. Further, in series [6], the “Simulated gastric fluid (pH 1.1): % remaining after 2 h/37° C.” value was 99.8% and the “Simulated intestinal fluid (pH 6.8): % remaining after 2 h/37° C.” value was 99.8%.

Regarding `Cc1cc(O)cc(C)c1OCC(C)N` (stereo not shown) [Para-hydroxymexiletine], in series [7], the “Sodium channel inhibitory activity retained relative to the parent molecule” value was “around 25%”.

As to `Cc1cccc(C)c1OCC(C)N.Cl` (racemic) [Mexiletine hydrochloride, (rac)-1-(2,6-dimethylphenoxy)-2-propanamine hydrochloride], the EC50 in series [3] (Oryctolagus cuniculus) amounted to 2.17 µM. For the same molecule, in series [8], the “Increase in the speed of stair step movement” value is listed as 2.8 fold. Further, the “Reduction in the time taken for eye opening” value in series [8] is listed as 6 fold. Also, the “Reduction of hand opening time” value in series [8] is given as 6.9 fold. Moreover, the “Reduction in grip relaxation time” value in [9] was 2 fold. The “Coefficient of variation of the response” value in [10] (10 mg/kg (same molar dose level), time of maximal effect of 9-AC (+30 mins)) is 96%. Also, the “Mean ± SEM righting response time” value stood at 1.96 ± 0.193 s in series [10] (drug 1 mg/kg po, 9-AC +10 mins (predrug)); 2.94 ± 0.490 s in [10] (drug 1 mg/kg po, 9-AC +30 mins); 1.73 ± 0.165 s in [10] (drug 1 mg/kg po, 9-AC +60 mins); 1.17 ± 0.124 s in series [10] (drug 1 mg/kg po, 9-AC +120 mins); 0.831 ± 0.169 s in series [10] (drug 1 mg/kg po, 9-AC +180 mins); 2.36 ± 0.208 s in [10] (drug 5 mg/kg po, 9-AC +10 mins (predrug)). Besides, the “Mean ± SEM righting response time” value in [10] (drug 5 mg/kg po, 9-AC +30 mins) was 2.21 ± 0.153 s; in series [10] (drug 5 mg/kg po, 9-AC +60 mins), 2.34 ± 0.386 s; in [10] (drug 5 mg/kg po, 9-AC +120 mins) it was 1.33 ± 0.194 s; in [10] (drug 5 mg/kg po, 9-AC +180 mins), 0.980 ± 0.220 s; in series [10] (drug 10 mg/kg po, 9-AC +10 mins (predrug)) it was 2.26 ± 0.195 s; in series [10] (drug 10 mg/kg po, 9-AC +30 mins) it was 3.28 ± 1.58 s. The “Mean ± SEM righting response time” value in series [10] (drug 10 mg/kg po, 9-AC +60 mins) is 2.28 ± 0.347 s; in series [10] (drug 10 mg/kg po, 9-AC +120 mins), 1.41 ± 0.190 s; in series [10] (drug 20 mg/kg po, 9-AC +10 mins (predrug)), 2.27 ± 0.260 s; in [10] (drug 20 mg/kg po, 9-AC +60 mins), 1.43 ± 0.294 s; in series [10] (drug 20 mg/kg po, 9-AC +120 mins) it was 0.949 ± 0.131 s; in series [10] (drug 40 mg/kg po, 9-AC +10 mins (predrug)), 2.61 ± 0.088 s. Also, the “Mean ± SEM righting response time” value came out at 0.913 ± 0.0507 s in series [10] (drug 40 mg/kg po, 9-AC +60 mins); 0.746 ± 0.0699 s in series [10] (drug 40 mg/kg po, 9-AC +120 mins); 0.583 ± 0.0606 s in series [10] (drug 40 mg/kg po, 9-AC +180 mins); 7.80 ± 3.72 s in series [11] (+15 mins); 9.53 ± 5.07 s in series [11] (+30 mins); 10.5 ± 3.68 s in series [11] (+60 mins). For the same molecule, the “Mean ± SEM righting response time” value is 12.5 ± 4.98 s in series [11] (+120 mins), 12.5 ± 4.27 s in series [11] (+180 mins) and 7.94 ± 1.25 s in [11] (−10 mins (pre dosing)). In series [11], the “Effects on righting time” value is listed as “marginal”.

As to `Cc1cccc(C)c1OCC(C)NC(=O)[C@@H](N)CCCCN.O=C(O)C(F)(F)F.O=C(O)C(F)(F)F` (mixture of isomers) [Mexiletine (S)-lysine amide, (Rac)-Mexiletine-(S)-Lysine Ditrifluoroacetate], in series [1], the “pH 7.4, 37° C. 0.1M phosphate buffer: % remaining after 2 h/37° C.” value is listed as 100%. Further, in series [2] (plasma mexiletine), the AUC of mexiletine is listed as 301** ng · h/mL, the Cmax of mexiletine is given as 54.4** ng/mL and the “T50% Cmax” value is 5.0** h. In series [2] (relative to mexiletine), the “F(rel)” value was 28.0** %. In series [3] (rabbit stomach antrum strips, EFS 14 Hz), the EC50 came out at 21.8 µM. Besides, in series [6] (setting [13]), the “Simulated gastric fluid (pH 1.1): % remaining after 2 h/37° C.” value was 99.8% and 100%; the “Simulated intestinal fluid (pH 6.8): % remaining after 2 h/37° C.” value was 80.8% and 100%.

Take `CNCC[C@H](Oc1cccc2ccccc12)c1cccs1` [Duloxetine, duloxetine]: in series [12] (treated patients), the “Treated patients with nausea” value is given as 20-40%.

For the molecule `CC(C)C[C@H](CN)CC(=O)O` [pregabalin], the “Patients with dizziness and somnolence” value in series [12] (patients treated at the higher doses) is recorded as “up to 30%”.

(Values after patent publication US20120196933A1, “MEXILETINE PRODRUGS” (priority 2010, published 2012).)
